Source: patent US12246091B2, “Method of encapsulating active ingredients in liposomes” (ABNOBA GMBH, priority 2018, dated 2025)

Assay: Solubility of the amphiphilic compound in the first liquid perfluoroperhydrophenanthrene (C14F24)
Conditions: for solubility: perfluoroperhydrophenanthrene (C14F24), organic solvent or mixture

SMILES | solubility | Solubility in C14F24 (in perfluoroperhydrophenanthrene (C14F24, CAS 306-91-2), bound is the detection limit)
CCCCCCCCCCCCCCCC(=O)OC[C@H](COP(=O)([O-])OCC[N+](C)(C)C)OC(=O)CCCCCCCCCCCCCCC [DPPC, dipalmitoylphosphatidylcholine] | < 10 µM | 
CCCCCCCCCCCCCCCCCC(=O)OC[C@H](COP(=O)([O-])OCC[N+](C)(C)C)OC(=O)CCCCCCCCCCCCCCCCC [DSPC, distearoylphosphatidylcholine] |  | < 10^−5 mol/l
CC(C)CCC[C@@H](C)[C@H]1CC[C@H]2[C@@H]3CC=C4C[C@@H](O)CC[C@]4(C)[C@H]3CC[C@]12C [cholesterol] | < 10 µM | 
